Measured values taken from the METLIN SMRT retention time set (Domingo-Almenara et al. 2019).

Assay: gradient 5% acetonitrile 3 min, to 50% in 2 min, to 85% in 15 min, held 3 min, 100 µL/min
Conditions: column: Zorbax Extend-C18 2.1 x 50 mm; eluents: water / acetonitrile, 0.1% formic acid
Summary of the method: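 Each retention time is based on an adduct peak selected computationally and verified by manual inspection. Measurements used HPLC–quadrupole time-of-flight mass spectrometry in positive and negative ionization mode on mixtures of ~100 pure standards. Chromatography ran on a Zorbax Extend-C18 column (2.1 × 50 mm, 1.8 μm) at 100 μL/min with water and acetonitrile, each containing 0.1% formic acid, and dead and dwell volumes of 40 μL and 900 μL.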

Point of comparison: COc1ccc2[nH]c3c(c2c1)CCNC31CCN(S(=O)(=O)c2cccnc2)CC1, RP-LC retention time 634 s. Against it:
- CC1=NS(=O)(=O)N(C)C=C1C(=O)OCc1noc(-c2ccccc2F)n1 — higher, 914 s
- O=C(Nc1cccc2cccnc12)C1CCN(c2ccc(-n3cccn3)nn2)CC1 — higher, 745 s
- COc1ccc(CCNC(=O)C2CCc3nc(N4CCC(C)CC4)ncc3C2)cc1OC (configuration not stated) — higher, 757 s
- O=C(CN1CC=C(c2cnn(-c3ccccc3)c2)CC1)N1CCN(Cc2ccc3c(c2)OCO3)CC1 — lower, 591 s
- Cc1cccc(-c2noc(-c3nn(CC(=O)NCC4CCCO4)c4ccccc34)n2)c1 (configuration not stated) — higher, 1040 s
- COc1ccc2c(c1OC)C(=O)O[C@@H]2[C@H]1c2cc3c(cc2CCN1C)OCO3 — higher, 660 s
- CCN(CC)S(=O)(=O)c1cc(-c2nnc(-c3ccc(OC)cc3)o2)ccc1C — higher, 1030 s
- O=C(NCCCn1c(-c2ccncc2)nc2cccnc21)Nc1ccc(F)c(Cl)c1 — higher, 693 s
- CC1CCN(C(=O)C2=NN(Cc3cccc(F)c3)c3ccccc3S2(=O)=O)CC1 — higher, 1010 s
- Cc1ccc2[nH]cc(CCNC(=O)C3CCN(S(=O)(=O)c4ccc5c(ccn5C)c4)CC3)c2c1 — higher, 933 s
- CCC(=O)N(C)CCc1noc(COc2cccc(C(F)(F)F)c2)n1 — higher, 842 s
- O=C(Nc1nnc(C2CC(=O)N(c3ccc(Cl)cc3)C2)o1)c1ccccc1F (configuration not stated) — higher, 748 s
- COc1ccc(CCNC(=O)C(=O)NCc2ccc(F)cc2)cc1OC — higher, 770 s
- COC(=O)c1ccc(NC(=O)N(C)CCc2noc(C3CCCCC3)n2)cc1 — higher, 906 s
- O=C(CCSc1nnnn1-c1ccc(Cl)cc1)Nc1nccs1 — higher, 776 s
- Cc1ccc(CNC(=O)Cc2nnc(-c3ccccn3)o2)cc1 — higher, 692 s
- Cc1cccc(NC(=O)C2CC(=O)N(c3n[nH]c4cccc(F)c34)C2)c1 (configuration not stated) — higher, 759 s
- CC(C)NC(=O)C1(c2ccc(NS(C)(=O)=O)cc2)CCCCC1 — higher, 782 s
- O=C(Cn1c(=O)cc(-c2nc(C3CC3)no2)c2ccccc21)NC1CCCC1 — higher, 869 s
- COc1ccc(C)cc1NC(=O)N1CCC(OC2CCN(S(C)(=O)=O)CC2)CC1 — higher, 810 s
- O=C(NCc1csc(-c2cccs2)n1)C1CCN(S(=O)(=O)c2cccc(Cl)c2)CC1 — higher, 927 s
- CC(=O)c1ccc(NC(=O)Cn2c(C)cc(-c3nnc(C4CCC4)o3)c2C)cc1 — higher, 813 s
- CCCNC(=O)Cn1c(=O)c2cnc(-c3ccc(Cl)cc3)nc2n(C)c1=O — higher, 909 s
- Cc1cc(C)cc(NC(=O)Cn2cc(-c3noc(-c4ccncc4)n3)nc2C)c1 — higher, 735 s
- Cn1c(=O)c(N2CCC(NC(=O)Nc3ccccc3C(F)(F)F)CC2)nc2ccccc21 — higher, 953 s
- CN1C(=O)c2cc(C(=O)Nc3cccc(F)c3)nn2CC1(C)C(=O)NC1CCCCCC1 (configuration not stated) — higher, 791 s
- O=S(=O)(Nc1ccc(-c2noc(COc3ccc(F)cc3)n2)cc1)c1cccs1 — higher, 1040 s
- Cc1nnc(-c2ccc3ccn(CC(=O)Nc4nccs4)c3c2)o1 — higher, 707 s
- CCN(CC)c1nc2cc(C(=O)OC)ccc2c(=O)n1CCc1ccccc1 — higher, 1250 s
- CCOC(=O)c1c(C)[nH]c(C(=O)N2CCC(C(C)C(=O)N3CCOCC3)CC2)c1C (configuration not stated) — higher, 681 s
- Cc1ccc(C2CC(=O)N(c3ccc(F)cc3F)C(=O)C2)cc1 — higher, 987 s
- O=C(CCC1CCCN(C(=O)Nc2ccc(Cl)cc2)C1)NCc1cccc(Cl)c1 (configuration not stated) — higher, 960 s
- CC1CCN(S(=O)(=O)c2ccc3c(c2)CCCC(=O)N3CC(=O)N2CCc3ccccc32)CC1 — higher, 1030 s
- COCCCn1c(C)cc(C(=O)NCC2Cn3cccc3C(=O)N2C)c1C (configuration not stated) — higher, 666 s
- C=CCNC(=O)c1cc2n(n1)CCCC2 — higher, 646 s
- CO[C@H]1CN(C2CCN(Cc3cn(C(C)C)c4ccccc34)CC2)[C@H]1c1ccncc1 — lower, 590 s
- Cc1cc(C(=O)N2CCCCC2)c2c(=O)n(CC(=O)NC3CCCCC3)c(=O)n(C)c2n1 — higher, 786 s
- CC(C)NC(=O)CSc1nnc2c3cc(-c4ccc(F)cc4)nn3ccn12 — higher, 735 s
- CC(C)NC(=O)CN1CCN(c2ncc(C(=O)NCc3ccccc3)c(N)n2)CC1 — lower, 593 s
- Cc1c(Cl)cccc1NC(=O)Cn1c(=O)cc(-c2nc(C(C)C)no2)c2ccccc21 — higher, 1080 s
- Cc1oc(-c2[nH]ncc2C(=O)N2CCCC2)cc1S(=O)(=O)NCc1cccc(F)c1 — higher, 706 s
- CCS(=O)(=O)N1CC(=O)N(c2cccc(F)c2)C(C)(C(=O)NC2CCCCCCC2)C1 (configuration not stated) — higher, 956 s
- COc1ccc(-n2c(SCc3nc(-c4ccc(C)cc4)no3)nnc2-c2ccncc2)cc1 — higher, 1000 s
- COc1ccc(NC(=O)CCc2c(C)nn(-c3cc(N(C)C)ncn3)c2C)c(OC)c1 — higher, 776 s
- CC(C)Cn1c(=O)c2cc(C(=O)NCc3cc(F)ccc3F)nn2c2ccccc21 — higher, 1030 s
- COc1ccc(NC(=O)CN2C(=O)NC3(CCCCC3)C2=O)cc1Cl — higher, 778 s
- COc1ccc(-c2nc(C3CC(=O)N(c4ccccc4)C3)no2)cc1 (configuration not stated) — higher, 971 s
- CCc1nc2c(N)cccn2n1 — lower, 597 s
- Cc1ccc(C(=O)NCCc2cn3ccsc3n2)cc1[N+](=O)[O-] — lower, 559 s
- CCSc1nnc(-c2nn(C)c3c2CN(S(=O)(=O)c2cccc(Cl)c2)CC3)n1CC — higher, 989 s
- O=C(NCc1ccccc1)N1CCN(c2nc3cccnc3n(Cc3ccccc3)c2=O)CC1 — higher, 1020 s
- O=C(O)c1cccc(Nc2c(-c3ccc([N+](=O)[O-])cc3)nc3cnccn23)c1 — higher, 717 s
- Cc1[nH]nc(-c2c(C)sc(C)c2S(=O)(=O)NCc2ccc(Cl)cc2)c1C — higher, 1100 s
- Cc1c(Cl)cccc1S(=O)(=O)N1CCc2nc(-c3ccccc3)ncc2C1 — higher, 1210 s
- CCOc1cccc(CN2CC[C@@](C)(O)[C@H](N3CCCC3)C2)c1 — lower, 562 s
- COc1cc(C(=O)Nc2nc(-c3ccc4c(c3)NC(=O)C(C)O4)cs2)cc(OC)c1OC (configuration not stated) — higher, 903 s
- COc1ccc2c(C)c(CCC(=O)N[C@H](CC(C)C)C(=O)O)c(=O)oc2c1C — higher, 781 s
- CC(C)Cn1cc(CCNS(=O)(=O)Cc2cccc(Cl)c2)c2cccnc21 — higher, 969 s
- O=C(NCCc1cccs1)C1CCN(c2cc(N3CCOCC3)ncn2)CC1 — lower, 607 s
- CCn1nccc1-c1cccc(-c2noc(-c3cccnc3Cl)n2)c1 — higher, 1040 s
- O=C1NCCCn2cc(S(=O)(=O)Nc3ccc(OC(F)(F)F)cc3)cc21 — higher, 739 s
- COc1ccc(/C=C2/CCOC2=O)cc1 — higher, 833 s
- CCOC(=O)c1nc(NCc2ccc(CC)cc2)c2ccccc2n1 — higher, 869 s
- Cc1cc2nc(C(F)(F)F)c(=O)n(C(C)C(=O)NCCCN3CCN(C)CC3)c2cc1C (configuration not stated) — higher, 652 s
- COc1ccc(OC)c(S(=O)(=O)N2C[C@@H](F)C[C@H]2C(=O)N2CCCCC2)c1 — higher, 762 s
- CCOc1ccc(S(=O)(=O)N2CCC(c3noc(-c4ccc(Cl)cc4)n3)CC2)cc1 — higher, 1260 s
- O=C(NCc1ccco1)c1cc(N2C(=O)CCS2(=O)=O)ccc1Cl — higher, 675 s
- CCOc1nc2ccccc2nc1N1CCCC(C(=O)N2CCN(C)CC2)C1 (configuration not stated) — higher, 646 s
- O=C(Nc1ccc(Cl)cc1)C1CCN(S(=O)(=O)c2ccc3[nH]c(=O)sc3c2)CC1 — higher, 854 s
- O=C(Cn1c(=O)c2cc(C3CC3)nn2c2ncccc21)Nc1ccc(F)c(F)c1 — higher, 792 s
- O=C(C1=CN(c2ccc(F)c(F)c2)c2cc(Cl)ccc2S1(=O)=O)N1CCOCC1 — higher, 775 s
- CC(C)c1ccc(-c2nc3ncccn3c2NCc2ccc(Cl)cc2)cc1 — higher, 936 s
- Cc1ccn2cc(-c3ccc(NC(=O)c4cccc(I)c4)cc3)nc2n1 — higher, 734 s
- CC1(C)CC(=O)C2=C(C1)N(CC1CCCO1)C(=O)C2(NC(=O)c1ccccc1F)C(F)(F)F (configuration not stated) — higher, 908 s
- O=S(=O)(c1cccc2c(Cl)cccc12)N1CCCNCC1 — higher, 716 s
- CCCCCC(=O)Nc1cc(-c2nc3ccccc3[nH]2)ccc1C — higher, 712 s
- CCOc1ccccc1N1CCN(S(=O)(=O)c2nn(C)cc2C(=O)NCCCOC(C)C)CC1 — higher, 971 s
- O=C(Nc1cccc(F)c1)N1C[C@H]2C[C@H](C1)[C@H]1CCCC(=O)N1C2 — higher, 660 s
- Cn1ncc2c(N3CCOCC3)nc(C(=O)NCc3cccs3)nc21 — higher, 686 s
- Cc1ccc(N2CCN(C(=O)c3c(C)oc4nc(C)nc(N5CCOCC5)c34)CC2)c(C)c1 — higher, 1020 s
- Cc1ccc(NC(=O)Cn2ccc3sccc3c2=O)cc1Cl — higher, 830 s
- O=C(CSc1nc2ncccc2[nH]1)NC1CCCCC1 — lower, 621 s
- CCc1ccc(CNC(=O)Cn2cnc3nc4c(cc3c2=O)CC(C)CC4)cc1 (configuration not stated) — higher, 855 s
- Cc1cccc(-c2nc(-c3cccc(-c4ccnn4C)c3)no2)c1 — higher, 1220 s
- COc1cccc(C(=O)N2CCc3c(c(-c4nnc(-c5ccccc5Cl)o4)nn3C)C2)c1OC — higher, 822 s
- Cn1nc(C(=O)N2CCCC(C(=O)Nc3ccccc3)C2)c2c1CCN(C(=O)CCc1ccccc1)C2 (configuration not stated) — higher, 800 s
